Data reported in patent US7696218B2, “Substituted 1,3-dialkyl-2,4-dioxo-6-(arylamino)-1,2,3,4-tetrahydropyrimidine-5-hydroxamic acid inhibitors of MAPK/ERK kinase” (Takeda San Diego, Inc., priority 2006, dated 2010).

Target: T1, MEK2 (Homo sapiens, UniProt P36507, S222E/S226D)
T1 construct: 6-histidine tag (N); made in house; host or cells: Spodoptera frugiperda Sf9 (baculovirus) for MEK2; E. coli for ERK1
Experiment: MEK2 inhibition assay, fluorescence polarization with IMAP beads (ERK1 / FI-Erktide substrate)
Assay type: biochemical
Settings: 4 nM MEK2, 25 nM ERK1, 400 μM ATP, 500 nM FI-Erktide, 1% DMSO, 22 min at room temperature; values given as ranges; read-out: IC50 of Exemplified Compounds Against MEK2
Excerpt: For MEK2, DNA encoding residues 1-400 (S222E/S226D) of the full-length sequence of the human enzyme may be amplified by PCR and cloned into pFastbac (Invitrogen), which incorporates a 6-histidine tag at the N-terminus. The two mutations, S222E and S226D, may be obtained by quick change PCR. SEQ ID NO: 3 corresponds to residues 1-400 with mutations S222E/S226D, and with the N-terminal 6-histidine tag and SEQ ID NO: 4 is the DNA sequence that was used to encode SEQ ID NO: 3.
Recombinant baculovirus incorporating the MEK1 and MEK2 constructs may be generated by transposition using the Bac-to-Bac system (Invitrogen). High-titer viral stocks may be generated by infection of Spodoptera frugiperda Sf9 cells; the expression of recombinant protein may be carried out by infection of Spodoptera frugiperda Sf9 (Invitrogen) in 5L Wave Bioreactors (Wave Biotech).
Recombinant protein may be isolated from cellular extracts by passage over ProBond resin (Invitrogen). Partially purified extracts of all MEK1 may then be further purified by high pressure liquid chromatography over a SEC2000 gel filtration resin. The purity of MEK1 and MEK2 proteins may be determined on denaturing SDS-PAGE gel. Purified MEK1 and MEK2 may then be concentrated to a final concentration of 3.4 mg/ml and 5.4 mg/ml, respectively. The proteins may be either stored at −78° C. in a buffer containing 50 mM TRIS-HCl pH 7.6, 250 mM NaCl, 0.1 mM EDTA and 0.125 mM TCEP or at −20° C. in the presence of glycerol (final concentration of glycerol at 50%).
The inhibitory properties of compounds relative to MEK1 or MEK2 may be determined using a black 384-well-plate format under the following reaction conditions: 50 mM HEPES pH 7.3, 10 mM NaCl, 10 mM MgCl2, 0.01% Brij35, 1 nM MEK1 or 4 nM MEK2, 25 nM ERK1, 400 μM ATP, 500 nM IPTTPITTYFFFK-5FAM-COOH (FI-Erktide), and 1% DMSO. Reaction product is determined quantitatively by fluorescent polarization using progressive IMAP beads from Molecular Devices.
The assay reaction may be initiated as follows: 2 μl of the mixture of 1.5 μM FI-Erktide and 75 nM ERK with 2 μl of inhibitor (2 fold serial dilutions for 11 data points for each inhibitor) containing 3% DMSO were added to each well of the plate, followed by the addition of 2 μl of the mixture of 3 nM MEK1 or 12 nM MEK2 and 1200 μM ATP to initiate the reaction (final enzyme concentration was 1 nM for MEK1 or 4 nM for MEK2). The reaction mixture may then be incubated at room temperature for 22 min, and quenched and developed by addition of 20 μl of 1:200 dilution of progressive IMAP beads (Molecular Devices) in 80% buffer A, 20% bufferB and 0.003% Tween 20. Fluorescence polarization of the resulting reaction mixtures may be measured after a 1 hour incubation at room temperature.
IC50 values may be calculated by non-linear curve fitting of the compound concentrations and fluorescence polarization signal to the standard IC50 equation.

T1 sequence (P36507 with tags, fused parts or gaps S222E/S226D): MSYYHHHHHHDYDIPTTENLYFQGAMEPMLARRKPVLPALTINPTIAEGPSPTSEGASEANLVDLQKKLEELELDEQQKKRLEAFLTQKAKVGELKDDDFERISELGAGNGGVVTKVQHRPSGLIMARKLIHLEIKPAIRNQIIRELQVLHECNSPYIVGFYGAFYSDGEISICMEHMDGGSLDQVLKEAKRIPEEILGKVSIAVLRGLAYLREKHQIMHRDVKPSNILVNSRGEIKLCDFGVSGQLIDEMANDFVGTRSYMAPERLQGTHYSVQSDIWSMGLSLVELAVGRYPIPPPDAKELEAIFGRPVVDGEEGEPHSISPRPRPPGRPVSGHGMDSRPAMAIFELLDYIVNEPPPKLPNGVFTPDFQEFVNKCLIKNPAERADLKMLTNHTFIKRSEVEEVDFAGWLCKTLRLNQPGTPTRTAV

Row | SMILES | IC50 [µM]
1 | Cn1c(Nc2ccc(I)cc2F)c(C(=O)NOCC[C@H](O)CO)c(=O)n(C)c1=O [Example 34, (S)-N-(3,4-Dihydroxybutoxy)-6-(2-fluoro-4-iodophenylamino)-1,3-dimethyl-2,4-dioxo-1,2,3,4-tetrahydropyrimidine-5-carboxamide] | 2.5 to 25
2 | Cc1cc(C(=O)c2c(Nc3ccc(I)cc3F)n(C)c(=O)n(C)c2=O)no1 [Example 30, 6-(2-Fluoro-4-iodophenylamino)-1,3-dimethyl-5-(5-methylisoxazole-3-carbonyl)pyrimidine-2,4(1H,3H)-dione] | > 25
3 | CC(=O)OCC(=O)c1c(Nc2ccc(I)cc2F)n(C)c(=O)n(C)c1=O [Example 14, 2-(6-(2-Fluoro-4-iodophenylamino)-1,3-dimethyl-2,4-dioxo-1,2,3,4-tetrahydropyrimidin-5-yl)-2-oxoethyl acetate] | > 25
4 | COCC(=O)c1c(Nc2ccc(I)cc2F)n(C)c(=O)n(C)c1=O [Example 12, 6-(2-Fluoro-4-iodophenylamino)-5-(2-methoxyacetyl)-1,3-dimethylpyrimidine-2,4(1H,3H)-dione] | 2.5 to 25
5 | CCOC(=O)c1c(Nc2ccccc2F)n(C)c(=O)n(C)c1=O [Example 21, Ethyl 6-(2-fluorophenylamino)-1,3-dimethyl-2,4-dioxo-1,2,3,4-tetrahydropyrimidine-5-carboxylate] | > 25
6 | Cn1c(Nc2ccc(I)cc2F)c(C(=O)NOC[C@H](O)CO)c(=O)n(C)c1=O [Example 2, (R)-N-(2,3-dihydroxypropoxy)-6-(2-fluoro-4-iodophenylamino)-1,3-dimethyl-2,4-dioxo-1,2,3,4-tetrahydropyrimidine-5-carboxamide] | ≤ 0.5
7 | Cn1c(Nc2ccc(I)cc2F)c(C(=O)c2ccco2)c(=O)n(C)c1=O [Example 11, 6-(2-Fluoro-4-iodophenylamino)-5-(furan-2-carbonyl)-1,3-dimethylpyrimidine-2,4(1H,3H)-dione] | 2.5 to 25
8 | Cn1c(Nc2ccc(I)cc2F)c(C(=O)NOC[C@@H](O)CCO)c(=O)n(C)c1=O [Example 57, 6-(2-Fluoro-4-iodo-phenylamino)-1,3-dimethyl-2,4-dioxo-1,2,3,4-tetrahydropyrimidine-5-carboxylic acid ((S)-2,4-dihydroxy-butoxy)-amide] | ≤ 0.5

Further lines, results first:

Row | IC50 [µM] | SMILES
9 | ≤ 0.5 | Cn1c(Nc2ccc(I)cc2Cl)c(C(=O)NOC[C@@H](O)CO)c(=O)n(C)c1=O [Example 39, (S)-6-(2-chloro-4-iodophenylamino)-N-(2,3-dihydroxypropoxy)-1,3-dimethyl-2,4-dioxo-1,2,3,4-tetrahydropyrimidine-5-carboxamide]
10 | ≤ 0.5 | Cn1c(Nc2ccc(I)cc2F)c(C(=O)NOC(CO)CO)c(=O)n(C)c1=O [Example 28, N-(1,3-dihydroxypropan-2-yloxy)-6-(2-fluoro-4-iodophenylamino)-1,3-dimethyl-2,4-dioxo-1,2,3,4-tetrahydropyrimidine-5-carboxamide]
11 | 2.5 to 25 | Cn1c(Nc2ccc(I)cc2F)c(C(=O)NCCN2CCCC2)c(=O)n(C)c1=O [Example 33, 6-(2-Fluoro-4-iodophenylamino)-1,3-dimethyl-2,4-dioxo-N-(2-(pyrrolidin-1-yl)ethyl)-1,2,3,4-tetrahydropyrimidine-5-carboxamide]
12 | 0.501 to 2.5 | CONC(=O)c1c(Nc2ccc(I)cc2F)n(C)c(=O)n(C)c1=O [Example 5, 6-(2-Fluoro-4-iodophenylamino)-N-methoxy-1,3-dimethyl-2,4-dioxo-1,2,3,4-tetrahydropyrimidine-5-carboxamide]
13 | 0.501 to 2.5 | Cn1c(=O)c(C(=O)NOC[C@H](O)CO)c(Nc2ccc(I)cc2F)n(CF)c1=O [Example 54, (R)-N-(2,3-Dihydroxypropoxy)-6-(2-fluoro-4-iodophenylamino)-1-(fluoromethyl)-3-methyl-2,4-dioxo-1,2,3,4-tetrahydropyrimidine-5-carboxamide]
14 | 0.501 to 2.5 | Cn1c(Nc2ccc(I)cc2F)c(C(=O)NCCN)c(=O)n(C)c1=O [Example 42, N-(2-Aminoethyl)-6-(2-fluoro-4-iodophenylamino)-1,3-dimethyl-2,4-dioxo-1,2,3,4-tetrahydropyrimidine-5-carboxamide]
15 | 0.501 to 2.5 | Cn1c(Nc2ccc(I)c(F)c2F)c(C(=O)NOC[C@H](O)CO)c(=O)n(C)c1=O [Example 36, (R)-6-(2,3-Difluoro-4-iodophenylamino)-N-(2,3-dihydroxypropoxy)-1,3-dimethyl-2,4-dioxo-1,2,3,4-tetrahydropyrimidine-5-carboxamide]
16 | ≤ 0.5 | Cn1c(Nc2ccc(I)cc2F)c(C(N)=O)c(=O)n(C)c1=O [Example 16, 6-(2-Fluoro-4-iodophenylamino)-1,3-dimethyl-2,4-dioxo-1,2,3,4-tetrahydropyrimidine-5-carboxamide]
17 | ≤ 0.5 | Cn1c(Nc2ccc(I)cc2F)c(C(=O)NN)c(=O)n(C)c1=O [Example 9, 6-(2-Fluoro-4-iodophenylamino)-1,3-dimethyl-2,4-dioxo-1,2,3,4-tetrahydropyrimidine-5-carbohydrazide]
18 | 0.501 to 2.5 | Cc1cc(I)ccc1Nc1c(C(N)=O)c(=O)n(C)c(=O)n1C [Example 17, 6-(4-Iodo-2-methylphenylamino)-1,3-dimethyl-2,4-dioxo-1,2,3,4-tetrahydropyrimidine-5-carboxamide]
19 | 0.501 to 2.5 | Cn1c(Nc2ccc(I)cc2F)c(C(=O)CO)c(=O)n(C)c1=O [Example 15, 6-(2-Fluoro-4-iodophenylamino)-5-(2-hydroxyacetyl)-1,3-dimethylpyrimidine-2,4(1H,3H)-dione]
